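Results reflect a 48-hour exposure of cells in 96-well plates to compound at five concentrations. The concentration for 50% growth inhibition is given as GI50. At the TGI there is no net growth.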

Among the data in PubChem BioAssay (NCI) are TGI and GI50 values, retold here.

One test has as its system A498 renal. The experiment in a line: growth of human tumour cells (NCI), 48 h.
For `CC(C)=Cc1cc(C(=O)Nc2ccc(Cl)c(Cl)c2)nc(N)n1`, the TGI was over 100 µM.

Take `CCN1CCN(c2nc(C)cc(N(CCNc3ccnc4cc(Cl)ccc34)Cc3ccc4c(c3)OCO4)n2)CC1`: the GI50 was 1.9 µM and the TGI stood at 5.71 µM.

Consider `Cn1cnc([N+](=O)[O-])c1Sc1nc2ccccc2[nH]1`, for which the TGI is 55.9 µM.

As to `CC(=O)OC1COC(n2ccc3cc(Br)c([N+](=O)[O-])cc32)C(OC(C)=O)C1OC(C)=O` (configuration not stated), the TGI is 78.9 µM.

In turn, `CCOC(=O)NC(=O)c1cn(CCCO)c(=O)[nH]c1=O` displayed a TGI of over 100 µM.

Take `CN(C)c1nc(=Nc2ccc(N=c3nc(N(C)C)ss3)cc2)ss1`: the TGI was over 79.3 µM.

In turn, `O=[N+]([O-])C(/C=C(\Cl)n1nnc2ccccc21)=C(/Cl)n1nnc2ccccc21` yielded a TGI of over 100 µM.

Compound `CCc1cc(Cc2cc(CC)c(NC(=O)C(=O)Cc3ccccn3)c(CC)c2Cl)c(Cl)c(CC)c1NC(=O)C(=O)Cc1ccccn1` came in with a TGI of over 100 µM.

Take `C[Si](C)(C)C1(Sc2ccccc2)SCCCS1`: the TGI was over 100 µM.

Regarding `c1ccc(COc2cccc3ccc[n+](Cc4ccccc4)c23)cc1`, the TGI turned out to be 97.8 µM.

As for `CC1(C)C2CCC(=O)C1CC2` (configuration not stated), the TGI was over 100 µM.

`O=S1(=O)OCCOS(=O)(=O)C1Br`: the TGI is over 100 µM.

In turn, `CCOC(=O)C(=C=C=C(c1ccccc1)c1ccccc1)C(=O)OCC` displayed a TGI of 78.9 µM.

`C/C(=N\NC(=S)NC(CCC(=O)O)C(=O)O)c1ccccn1` (configuration not stated) registered a TGI of over 100 µM.

Consider `Cc1cccc2c1CC1(C2)Cc2c(C)cccc2C1=O` (configuration not stated), for which the TGI is 88.9 µM.

As to `COc1ccc(S(=O)(=O)NNS(C)(=O)=O)cc1`, the TGI is over 100 µM.

For the compound `O=C(/C=C\c1ccc(Cl)c(Cl)c1)c1ccc(Cl)cc1Cl`, the GI50 was over 100 µM and the TGI was over 100 µM.

The compound `O=C1NCC2(CCN(CCCC3(c4ccc(F)cc4)OCCO3)CC2)N1c1ccccc1` registered a TGI of over 100 µM.

`CCN(CC)/C(SCc1ccccc1)=C(\C(Cl)=C(Cl)Cl)[N+](=O)[O-]` registered a TGI of 26.9 µM.

`CCN1c2ccccc2C(C(SC)S(=O)(=O)c2ccc(C)cc2)c2c1[nH]c(=O)n(C)c2=O` (configuration not stated) registered a TGI of over 100 µM.

As for `COC(OC)C(C)CC(=O)N(C)C` (configuration not stated), the TGI was over 100 µM.

Another test deals with BT-549 breast. The experiment in a line: growth of human tumour cells (NCI), 48 h.
In the case of `CCN1CCN(c2nc(C)cc(N(CCNc3ccnc4cc(Cl)ccc34)Cc3ccc4c(c3)OCO4)n2)CC1`, the GI50 was 1.74 µM and the TGI came out at 3.73 µM.

For `Cc1c2c(nn1-c1ccc(S(=O)(=O)/N=C3\SCCC(=O)N3c3ccccc3)cc1)-c1ccccc1CC2`, the GI50 was over 100 µM and the TGI is over 100 µM.

The next test concerns HL-60(TB) leukemia. The experiment in a line: growth of human tumour cells (NCI), 48 h.
`O=c1cc(-c2ccccc2)oc2cc(OCCCOc3ccc4c(=O)cc(-c5ccccc5)oc4c3)ccc12` displayed a TGI of over 100 µM.

In the case of `Clc1ccc(C(c2ccc(Cl)cc2)c2ccccn2)cc1`, the TGI was determined as 55.8 µM.

`CC(C)=Cc1cc(C(=O)Nc2ccc(Cl)c(Cl)c2)nc(N)n1` showed a TGI of over 100 µM.

For `CCN1CCN(c2nc(C)cc(N(CCNc3ccnc4cc(Cl)ccc34)Cc3ccc4c(c3)OCO4)n2)CC1`, the GI50 is 2.1 µM and the TGI stood at 4.22 µM.

Take `Cn1cnc([N+](=O)[O-])c1Sc1nc2ccccc2[nH]1`: the TGI is over 100 µM.

Compound `CCCCCCN(CCCCCC)C(=O)Cc1c2n(c3ccccc13)Cc1ccccc1-2` came in with a TGI of 46.4 µM.

For the compound `COc1cc(NCc2ccc3oc(=O)c(-c4ccccc4)nc3c2)cc(OC)c1OC`, the TGI is over 10 µM.

The compound `CN(C)c1nc(=Nc2ccc(N=c3nc(N(C)C)ss3)cc2)ss1` displayed a TGI of 45.3 µM.

Compound `CCCC(=O)OC1CC(n2cc(F)c(=O)[nH]c2=O)OC1COP(=O)(OCC(Cl)(Cl)Cl)OCC(Cl)(Cl)Cl` (configuration not stated) had a TGI of 40.4 µM.

The compound `CCc1cc(Cc2cc(CC)c(NC(=O)C(=O)Cc3ccccn3)c(CC)c2Cl)c(Cl)c(CC)c1NC(=O)C(=O)Cc1ccccn1` yielded a TGI of over 100 µM.

Compound `C[Si](C)(C)C1(Sc2ccccc2)SCCCS1` came in with a TGI of 33.3 µM.

Take `c1ccc(COc2cccc3ccc[n+](Cc4ccccc4)c23)cc1`: the TGI stood at 5.75 µM.

In turn, `CC1(C)C2CCC(=O)C1CC2` (configuration not stated) returned a TGI of over 100 µM.

The compound `O=S1(=O)OCCOS(=O)(=O)C1Br` came in with a TGI of over 100 µM.

For `CCOC(=O)C(=C=C=C(c1ccccc1)c1ccccc1)C(=O)OCC`, the TGI was 38.5 µM.

In the case of `CC1=CC(O)(c2ccc(-c3ccccc3Cl)cc2)OC1=O` (configuration not stated), the TGI is over 100 µM.

`C/C(=N\NC(=S)NC(CCC(=O)O)C(=O)O)c1ccccn1` (configuration not stated) yielded a TGI of over 100 µM.

The compound `C#CC1(O)CCC2C3CCc4cc(Oc5nc(F)nc(-c6c7ccccc7c7sc8ccccc8n67)n5)ccc4C3CC[C@@]21C` (some centres not stated) gave a TGI of over 100 µM.

Turning to `Cc1cccc2c1CC1(C2)Cc2c(C)cccc2C1=O` (configuration not stated), the TGI came out at 52.6 µM.

In the case of `Cc1c2c(nn1-c1ccc(S(=O)(=O)/N=C3\SCCC(=O)N3c3ccccc3)cc1)-c1ccccc1CC2`, the GI50 was over 100 µM and the TGI is over 100 µM.

`Cc1ccc(NC(=O)c2cc3cc(N=Nc4ccccc4C(=O)O)ccc3oc2=O)cc1` yielded a TGI of 69.4 µM.

Regarding `COc1ccc(S(=O)(=O)NNS(C)(=O)=O)cc1`, the TGI was over 100 µM.

As for `O=C(/C=C\c1ccc(Cl)c(Cl)c1)c1ccc(Cl)cc1Cl`, the GI50 is 3.46 µM and the TGI amounted to 23.3 µM.

The compound `O=C1NCC2(CCN(CCCC3(c4ccc(F)cc4)OCCO3)CC2)N1c1ccccc1` had a TGI of over 100 µM.

Take `CCN(CC)/C(SCc1ccccc1)=C(\C(Cl)=C(Cl)Cl)[N+](=O)[O-]`: the TGI was 38.9 µM.

Compound `CC(=O)/C(=C\c1cccc([N+](=O)[O-])c1)C(=O)Nc1ccccc1C` showed a TGI of 57.9 µM.

Consider `CCN1c2ccccc2C(C(SC)S(=O)(=O)c2ccc(C)cc2)c2c1[nH]c(=O)n(C)c2=O` (configuration not stated), for which the TGI was over 100 µM.

In the case of `COC(OC)C(C)CC(=O)N(C)C` (configuration not stated), the TGI was over 100 µM.

A further test has as its system HS 578T breast. The experiment in a line: growth of human tumour cells (NCI), 48 h.
`COc1cc(NCc2ccc3oc(=O)c(-c4ccccc4)nc3c2)cc(OC)c1OC`: the TGI is over 10 µM.

Regarding `CCCC(=O)OC1CC(n2cc(F)c(=O)[nH]c2=O)OC1COP(=O)(OCC(Cl)(Cl)Cl)OCC(Cl)(Cl)Cl` (configuration not stated), the TGI is 76.3 µM.

With `O=[N+]([O-])C(/C=C(\Cl)n1nnc2ccccc21)=C(/Cl)n1nnc2ccccc21`, the TGI was over 100 µM.

Compound `CC1(C)C2CCC(=O)C1CC2` (configuration not stated) gave a TGI of over 100 µM.
